No end group written: not given here.
What was measured:
[1] = system: test animals; conditions: treated test animals; e.g. marked hyperlactemia followed by hyperglycemia; cited from earlier work
[2] = Post-injection plasma pramlintide levels for three subcutaneous doses compared with healthy plasma amylin profile; type: in vivo, human
Text: How well do the recommended mealtime injections of pramlintide mimic the healthy plasma amylin profile? […] In the case of three meals per day, these doses would result in three large boluses of pramlintide that spike well above the levels of plasma amylin measured in healthy adults. FIG. 3 superimposes plasma levels of the three subcutaneous doses of pramlintide (FIG. 2) on the plasma amylin profile in healthy adults (FIG. 1).
From an efficacy standpoint, the dose limiting effect of nausea caused by pramlintide plasma spikes reduces daily drug exposure below healthy plasma amylin exposure levels. Daily exposure to endogenous hormone and infused drug can be measured by calculating the areas under the curves (AUCs) in FIG. 3.

[3] = T1D patients, same immunometric assay (FIG. 1-D); cited from earlier work
[4] = 24-hour plasma profiles of endogenous insulin and amylin in healthy adults, basal/bolus AUC analysis; type: in vivo, human; conditions: for In Vivo AUC pM × 24 hr / AUC: endogenous; for In Vivo AUC pM × 24 hr: molar; for AUC: human, in vivo, In Vivo AUC μg/L × 24 hr, corrected for molecular weight
Text: This difference in bolus/basal ratios was quantified by estimating the AUCs of the basal and bolus components, which would reflect the 24-hour hormone exposures attributable to these components.
Comparing AUCs results in the discovery that there is a striking difference between hormones with respect to the importance of bolus exposure compared to basal exposure, as summarized in Table 1. […] See the example in Table 1.
Either this is background amylin expression which been reported in non-beta-cell tissues, or it is nonspecific background noise in the amylin assay. […] The same adjustment should also be made for any background insulin plasma levels.
The following calculations are presented as an example of how appropriate amylin agonist doses can be determined. This insulin-dependent dosing can be achieved by calculating two separate components of pramlintide dosing: (1) the weight ratio of the daily basal component of amylin-to-insulin; and (2) the weight ratio of the daily bolus component of amylin-to-insulin.

[5] = ex vivo gram AUC (bioavailability adjusted)
[6] = in vivo gram AUC (molecular weight adjusted)
[7] = plasma, healthy adults, based upon AUCs

Pro28-h-amylin (KCNTATCATQRLANFLVHSSNNFGAILPSTNVGSNTY; ends and bridges not checked; cysteine pairing not given here; UniProt P10997 34-70, looked up, variant S28P) [amylin analogue]
amylin activity in vivo [1]: show amylin activity in vivo

CC[C@H](C)[C@H](NC(=O)[C@@H]1CCCN1C(=O)CNC(=O)[C@H](Cc1ccccc1)NC(=O)[C@H](CC(N)=O)NC(=O)[C@H](CC(N)=O)NC(=O)[C@H](CO)NC(=O)[C@H](CO)NC(=O)[C@H](Cc1c[nH]cn1)NC(=O)[C@@H](NC(=O)[C@H](CC(C)C)NC(=O)[C@H](Cc1ccccc1)NC(=O)[C@H](CC(N)=O)NC(=O)[C@H](C)NC(=O)[C@H](CC(C)C)NC(=O)[C@H](CCCNC(=N)N)NC(=O)[C@H](CCC(N)=O)NC(=O)[C@@H](NC(=O)[C@H](C)NC(=O)[C@@H]1CSSC[C@H](NC(=O)[C@@H](N)CCCCN)C(=O)N[C@@H](CC(N)=O)C(=O)N[C@@H]([C@@H](C)O)C(=O)N[C@@H](C)C(=O)N[C@@H]([C@@H](C)O)C(=O)N1)[C@@H](C)O)C(C)C)C(=O)N[C@@H](CC(C)C)C(=O)N1CCC[C@H]1C(=O)N1CCC[C@H]1C(=O)N[C@H](C(=O)N[C@@H](CC(N)=O)C(=O)N[C@H](C(=O)NCC(=O)N[C@@H](CO)C(=O)N[C@@H](CC(N)=O)C(=O)N[C@H](C(=O)N[C@@H](Cc1ccc(O)cc1)C(N)=O)[C@@H](C)O)C(C)C)[C@@H](C)O [pramlintide, 25,28,29Pro-h-amylin]
24-hour exposure (relative AUC, endogenous amylin = 100%) ([2]; 90 μg dose, three meals per day (FIG. 4)): achieves the healthy, 24-hour physiological exposure
plasma levels relative to plasma amylin in healthy adults ([2]; T1D patients, mealtime SC doses three times daily (FIG. 3)): supra-physiological (or pharmacological) plasma levels
amylin activity in vivo [1]: show amylin activity in vivo

Arg18 Pro25 Pro28-h-amylin
amylin activity in vivo [1]: show amylin activity in vivo

CC[C@H](C)[C@H](NC(=O)[C@H](C)NC(=O)CNC(=O)[C@H](Cc1ccccc1)NC(=O)[C@H](CC(N)=O)NC(=O)[C@H](CC(N)=O)NC(=O)[C@H](CO)NC(=O)[C@H](CO)NC(=O)[C@H](Cc1c[nH]cn1)NC(=O)[C@@H](NC(=O)[C@H](CC(C)C)NC(=O)[C@H](Cc1ccccc1)NC(=O)[C@H](CC(N)=O)NC(=O)[C@H](C)NC(=O)[C@H](CC(C)C)NC(=O)[C@H](CCCNC(=N)N)NC(=O)[C@H](CCC(N)=O)NC(=O)[C@@H](NC(=O)[C@H](C)NC(=O)[C@@H]1CSSC[C@H](NC(=O)[C@@H](N)CCCCN)C(=O)N[C@@H](CC(N)=O)C(=O)N[C@@H]([C@@H](C)O)C(=O)N[C@@H](C)C(=O)N[C@@H]([C@@H](C)O)C(=O)N1)[C@@H](C)O)C(C)C)C(=O)N[C@@H](CC(C)C)C(=O)N[C@@H](CO)C(=O)N[C@@H](CO)C(=O)N[C@H](C(=O)N[C@@H](CC(N)=O)C(=O)N[C@H](C(=O)NCC(=O)N[C@@H](CO)C(=O)N[C@@H](CC(N)=O)C(=O)N[C@H](C(=O)N[C@@H](Cc1ccc(O)cc1)C(N)=O)[C@@H](C)O)C(C)C)[C@@H](C)O [Amylin]
plasma amylin, average [3]: 1.6 pM
In Vivo AUC pM × 24 hr ([4]; basal component): 222.79 pM × 24 hr
In Vivo AUC pM × 24 hr ([4]; bolus component): 135.19 pM × 24 hr
Basal Amylin/Insulin Ratio [4, 5]: 14.8%
Bolus Amylin/Insulin Ratio [4, 5]: 4.8%
plasma levels as % of insulin levels ([4]; healthy adults, FIG. 8): less than 5%
AUC ([4]; basal component): 0.88 ng·h/mL
AUC ([4]; bolus component): 0.534 ng·h/mL
Basal Amylin/Insulin Ratio [4, 6]: 7.4%
Bolus Amylin/Insulin Ratio [4, 6]: 2.4%
Basal Amylin/Insulin Ratio ([4]; in vivo molar AUC): 10.9%
Bolus Amylin/Insulin Ratio ([4]; in vivo molar AUC): 3.5%
Basal as % Total [4, 7]: 62%
Bolus/Basal Ratio [4, 7]: 0.6

Arg18 Pro25 Pro 28-des-Lys1-h-amylin
amylin activity in vivo [1]: show amylin activity in vivo

Pro25 Val26 Pro 28 Pro29-h-amylin
amylin activity in vivo [1]: show amylin activity in vivo

des-Lys1-h-amylin
amylin activity in vivo [1]: show amylin activity in vivo
